PubChem BioAssay (NCI)
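In this assay, cells in 96-well plates receive the compound at five concentrations for 48 hours. Endpoints are linearly interpolated between the surrounding concentrations. TGI denotes the concentration required for complete inhibition of growth.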

What was measured:
Assay in all cases: growth of human tumour cells (NCI), 48 h
ACHN renal = system: ACHN renal
T-47D breast = system: T-47D breast
BT-549 breast = system: BT-549 breast
SN12C renal = system: SN12C renal
HOP-92 NSCLC = system: HOP-92 NSCLC
OVCAR-3 ovarian = system: OVCAR-3 ovarian
SK-MEL-5 melanoma = system: SK-MEL-5 melanoma
786-0 renal = system: 786-0 renal
COLO 205 colon = system: COLO 205 colon
HCT-116 colon = system: HCT-116 colon
LOX IMVI melanoma = system: LOX IMVI melanoma
K-562 leukemia = system: K-562 leukemia
MOLT-4 leukemia = system: MOLT-4 leukemia
HL-60(TB) leukemia = system: HL-60(TB) leukemia
SF-295 CNS = system: SF-295 CNS
NCI-H460 lung = system: NCI-H460 lung
MDA-MB-231 breast = system: MDA-MB-231 breast
SNB-75 CNS = system: SNB-75 CNS
SF-539 CNS = system: SF-539 CNS
SW-620 colon = system: SW-620 colon
MDA-MB-435 = system: MDA-MB-435
MALME-3M melanoma = system: MALME-3M melanoma
HOP-62 NSCLC = system: HOP-62 NSCLC
RPMI-8226 leukemia = system: RPMI-8226 leukemia
HS 578T breast = system: HS 578T breast
PC-3 prostate = system: PC-3 prostate
A549 NSCLC = system: A549 NSCLC
CCRF-CEM leukemia = system: CCRF-CEM leukemia
SK-MEL-2 melanoma = system: SK-MEL-2 melanoma
OVCAR-8 ovarian = system: OVCAR-8 ovarian
M14 melanoma = system: M14 melanoma
NCI-H226 lung = system: NCI-H226 lung
SF-268 CNS = system: SF-268 CNS
SNB-19 CNS = system: SNB-19 CNS
MCF7 breast = system: MCF7 breast
U251 CNS = system: U251 CNS
SR leukemia = system: SR leukemia
MDA-N = system: MDA-N
CAKI-1 renal = system: CAKI-1 renal
EKVX NSCLC = system: EKVX NSCLC
DU-145 prostate = system: DU-145 prostate
TK-10 renal = system: TK-10 renal
SK-MEL-28 melanoma = system: SK-MEL-28 melanoma
UACC-257 melanoma = system: UACC-257 melanoma
A498 renal = system: A498 renal
HT29 colon = system: HT29 colon
IGROV1 ovarian = system: IGROV1 ovarian
UACC-62 melanoma = system: UACC-62 melanoma
NCI-H23 lung = system: NCI-H23 lung
HCT-15 colon = system: HCT-15 colon
RXF 393 renal = system: RXF 393 renal
HCC-2998 colon = system: HCC-2998 colon
KM12 colon = system: KM12 colon
OVCAR-5 ovarian = system: OVCAR-5 ovarian
SK-OV-3 ovarian = system: SK-OV-3 ovarian
OVCAR-4 ovarian = system: OVCAR-4 ovarian
NCI/ADR-RES ovarian = system: NCI/ADR-RES ovarian
UO-31 renal = system: UO-31 renal
NCI-H522 lung = system: NCI-H522 lung

COc1cccc(C2c3cc4c(cc3OC(O)C2C)OCO4)c1OC (configuration not stated) gave a TGI (ACHN renal) of 30.8 µM, a TGI (T-47D breast) of 40.7 µM and a TGI (BT-549 breast) of 65.6 µM. It also gave a TGI (SN12C renal) of 64 µM, a TGI (HOP-92 NSCLC) of 8.55 µM and a TGI (OVCAR-3 ovarian) of 17.9 µM. The TGI (SK-MEL-5 melanoma) was 21.8 µM, the TGI (786-0 renal) was 19.2 µM and the TGI (COLO 205 colon) was 19.7 µM. For the same molecule, the TGI (HCT-116 colon) was 12.3 µM, the TGI (LOX IMVI melanoma) was 23.5 µM and the TGI (K-562 leukemia) was 15.5 µM. It also gave a TGI (MOLT-4 leukemia) of 18.5 µM, a TGI (HL-60(TB) leukemia) of 4.83 µM and a TGI (SF-295 CNS) of 17.3 µM. It also gave a TGI (NCI-H460 lung) of 25.1 µM, a TGI (MDA-MB-231 breast) of 42.4 µM and a TGI (SNB-75 CNS) of 32.4 µM. It also gave a TGI (SF-539 CNS) of 26.8 µM, a TGI (SW-620 colon) of 54 µM and a TGI (MDA-MB-435) of 33.9 µM. It also gave a TGI (MALME-3M melanoma) of 32.9 µM, a TGI (HOP-62 NSCLC) of 80.1 µM and a TGI (RPMI-8226 leukemia) of 14.6 µM. It also gave a TGI (HS 578T breast) of 32.8 µM, a TGI (PC-3 prostate) of 32.1 µM and a TGI (A549 NSCLC) of 26 µM. The TGI (CCRF-CEM leukemia) was 9.6 µM, the TGI (SK-MEL-2 melanoma) was 25.6 µM and the TGI (OVCAR-8 ovarian) was 18.7 µM. It also gave a TGI (M14 melanoma) of 50.9 µM, a TGI (NCI-H226 lung) of 24.8 µM and a TGI (SF-268 CNS) of 41.7 µM. The TGI (SNB-19 CNS) was 74.2 µM, the TGI (MCF7 breast) was greater than 100 µM and the TGI (U251 CNS) was 40.2 µM. It also gave a TGI (SR leukemia) of 11.3 µM, a TGI (MDA-N) of 58.3 µM and a TGI (CAKI-1 renal) of 13.9 µM. For the same molecule, the TGI (EKVX NSCLC) was 78.7 µM, the TGI (DU-145 prostate) was 26.2 µM and the TGI (TK-10 renal) was 52 µM. The TGI (SK-MEL-28 melanoma) was 39.5 µM, the TGI (UACC-257 melanoma) was 37.9 µM and the TGI (A498 renal) was 16.2 µM. It also gave a TGI (HT29 colon) of 24.5 µM, a TGI (IGROV1 ovarian) of 36.4 µM and a TGI (UACC-62 melanoma) of 44.7 µM. It also gave a TGI (NCI-H23 lung) of 64 µM, a TGI (HCT-15 colon) greater than 100 µM and a TGI (RXF 393 renal) of 23.5 µM. It also gave a TGI (HCC-2998 colon) of 46 µM, a TGI (KM12 colon) of 33.9 µM and a TGI (OVCAR-5 ovarian) of 60.9 µM.

Molecule CN1CSC(=S)N(c2cccc(C(F)(F)F)c2)C1 has a TGI (ACHN renal) of 36.5 µM, a TGI (T-47D breast) greater than 100 µM and a TGI (BT-549 breast) of 44.2 µM. For the same molecule, the TGI (SN12C renal) was greater than 100 µM, the TGI (HOP-92 NSCLC) was 50.5 µM and the TGI (OVCAR-3 ovarian) was 46.7 µM. For the same molecule, the TGI (SK-MEL-5 melanoma) was 31.4 µM, the TGI (786-0 renal) was 73.6 µM and the TGI (COLO 205 colon) was 37.2 µM. For the same molecule, the TGI (HCT-116 colon) was greater than 100 µM, the TGI (LOX IMVI melanoma) was 43.1 µM and the TGI (K-562 leukemia) was 59.6 µM. The TGI (MOLT-4 leukemia) was 57 µM, the TGI (HL-60(TB) leukemia) was 59 µM and the TGI (SK-OV-3 ovarian) was greater than 100 µM. For the same molecule, the TGI (SF-295 CNS) was 51.2 µM, the TGI (NCI-H460 lung) was 42.6 µM and the TGI (OVCAR-4 ovarian) was 37.5 µM. The TGI (SNB-75 CNS) was greater than 100 µM, the TGI (SF-539 CNS) was 52 µM and the TGI (SW-620 colon) was greater than 100 µM. It also gave a TGI (MDA-MB-435) of 51.9 µM, a TGI (MALME-3M melanoma) of 35.2 µM and a TGI (HOP-62 NSCLC) of 70 µM. The TGI (RPMI-8226 leukemia) was 39.4 µM, the TGI (HS 578T breast) was 82.2 µM and the TGI (PC-3 prostate) was 69.1 µM. The TGI (A549 NSCLC) was 73 µM, the TGI (CCRF-CEM leukemia) was greater than 100 µM and the TGI (SK-MEL-2 melanoma) was 43.3 µM. For the same molecule, the TGI (OVCAR-8 ovarian) was 74.5 µM, the TGI (M14 melanoma) was 33.8 µM and the TGI (NCI/ADR-RES ovarian) was 73.4 µM. For the same molecule, the TGI (NCI-H226 lung) was 61.8 µM, the TGI (SF-268 CNS) was 53 µM and the TGI (UO-31 renal) was 45.3 µM. For the same molecule, the TGI (SNB-19 CNS) was 61 µM, the TGI (MCF7 breast) was 33.3 µM and the TGI (U251 CNS) was greater than 100 µM. It also gave a TGI (SR leukemia) of 52.5 µM, a TGI (MDA-N) of 91.2 µM and a TGI (CAKI-1 renal) of 74 µM. The TGI (EKVX NSCLC) was 67.7 µM, the TGI (DU-145 prostate) was greater than 100 µM and the TGI (TK-10 renal) was 72.3 µM. For the same molecule, the TGI (SK-MEL-28 melanoma) was 52 µM, the TGI (NCI-H522 lung) was 30.8 µM and the TGI (UACC-257 melanoma) was 50.7 µM. The TGI (A498 renal) was 82.1 µM, the TGI (HT29 colon) was 47.7 µM and the TGI (IGROV1 ovarian) was 37.3 µM. The TGI (UACC-62 melanoma) was 31.7 µM, the TGI (NCI-H23 lung) was 33.2 µM and the TGI (HCT-15 colon) was 38 µM. The TGI (RXF 393 renal) was greater than 100 µM, the TGI (HCC-2998 colon) was 32.9 µM and the TGI (KM12 colon) was 50.7 µM. It also gave a TGI (OVCAR-5 ovarian) of 37 µM.
